# Test results as given in patent US20250144223A1, “PROTEIN DEGRADATION COMPOUND BASED ON NAMPT TARGET PROTEIN AND APPLICATION THEREOF” (GLUETACS THERAPEUTICS (SHANGHAI) CO., LTD., priority 2021, published 2025).
# Columns and labels:
# [1] = target: T1, intracellular NAMPT (iNAMPT) (Homo sapiens, UniProt P43490); assay: Western blot, NAMPT protein degradation (DC50) in SW620, HT29, MCF-7, BEL7404, MOLT4, Jurkat and HL60 cells; type: cell-based; conditions: tumor cells, 24 h
# T1 construct: assess the expression levels of NAMPT protein in tumor cells treated with the compounds of the present disclosure; endogenous in cells; host or cells: SW620, HT29, MCF-7, BEL7404, MOLT4, Jurkat, HL60
# Protocol: (§1) The tumor cells used herein were cultured in a cell culture medium at 37° C. in an incubator with 5% CO2, where the cell culture medium was supplemented with 10% FBS, as well as penicillin at a final concentration of 100 U/mL and streptomycin at a final concentration of 100 μg/mL.
# (§2) Tumor cells were seeded at a specific cell density in a 6-well plate containing 2 mL of RPMI1640/DMEM medium. For SW620, HT29, MCF-7, and BEL7404 cells, the seeding density was 1×10^6 cells per well, respectively; for MOLT4, Jurkat, and HL60 cells, the seeding density was 0.5×10^6 cells/mL. […] After 24 hours of compound treatment, the supernatant was removed, and cells were washed with PBS. The cells were then placed on ice and treated with protein lysis buffer containing protease and phosphatase inhibitors. The lysate was centrifuged at 12,000 RPM for 15 minutes at 4° C., and the supernatant was collected. Equal amounts of protein were mixed with 5×SDS, and after denaturation at 95° C. for 5 minutes, the samples were either frozen at −20° C. or subjected to direct protein electrophoresis. SDS-PAGE was performed using equal amounts of protein, and proteins were transferred to a nitrocellulose membrane at 95 V and 4° C. for 90 minutes. After membrane transfer, the membrane was blocked with TBST containing 5% skim milk powder (purchased from Beijing Cowin Bioscience Co., Ltd.) at room temperature for 1 hour. […]
# [2] = clinical trial results; cited from earlier work
# [3] = target: T2, extracellular NAMPT (eNAMPT) (Homo sapiens, UniProt P43490); assay: Western blot, eNAMPT protein degradation in HL60 and MOLT4 cell lines; type: cell-based
# T2 construct: degradation effects of compounds SIAIS630120 and SIAIS630121 of the present disclosure on eNAMPT protein in HL60 and MOLT4 cell lines; endogenous in cells; host or cells: HL60, MOLT4
# Protocol: as §1, §2
# Jurkat = assay: CellTiter-Glo Luminescent Cell Viability Assay, half inhibitory concentration (IC50) on tumor cell proliferation; type: cell-based; conditions: Homo sapiens, Jurkat cells, 72 h treatment
# In short: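 Jurkat cells seeded at 20,000 cells/well in serum-containing RPMI1640, treated after 24 h with serially diluted compound for 72 h at 37 °C, 5% CO2. Viability read by CellTiter-Glo luminescence; IC50 calculated from growth-inhibition curves.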
# HL60 tumor cells = assay: In vitro cytotoxicity assay against tumor cells (DAPI staining, flow cytometry); type: cell-based; conditions: 10 nM, 4th day
# Protocol: as §1, with “μg/mL. Prior to experimentation, all cells used were identified as correct cells by STR cells, and were negative for mycoplasma through routine testing.” for “μg/mL.”
# (§3) MOLT4 and HL60 tumor cells were seeded separately in 12-well plates containing 1 mL of RPMI1640 medium, with a cell seeding density of 0.5×10^6 cells/mL. On the second day, the parent inhibitor FK866 and the compounds SIAIS630120 and SIAIS630121 of the present disclosure were individually dissolved in DMSO to obtain stock solutions of the respective compounds at a concentration of 10 μM. Subsequently, 1 μL of the 10 μM compound stock solution was added to 1 mL of cell culture medium to achieve a final concentration of 10 nM. The cells were treated continuously for 4 days, and cell viability was measured once daily during this period. Specifically, cells were sampled once a day, adjusted to a concentration of 1×10^6/mL using a cell staining buffer, stained with 4′,6-diamidino-2-phenylindole dihydrochloride (DAPI) (1:250), and then analyzed with a flow cytometer. Initially, the cells were gated based on differences in cell size, followed by DAPI staining to gate for dead cells. Finally, the cytotoxic efficiency was assessed by calculating the DAPI-positive ratio.
# hematological tumors = conditions: animal models; cited from earlier work
# MOLT4 tumor cells = assay: In vitro cytotoxicity assay against tumor cells (DAPI staining, flow cytometry); type: cell-based; conditions: 10 nM, 4th day; for cytotoxicity, more effective than FK866: difference to FK866
# Protocol: as §1, with “μg/mL. Prior to experimentation, all cells used were identified as correct cells by STR cells, and were negative for mycoplasma through routine testing.” for “μg/mL.”
# as §3
# T2 sequence (P43490 whole entry): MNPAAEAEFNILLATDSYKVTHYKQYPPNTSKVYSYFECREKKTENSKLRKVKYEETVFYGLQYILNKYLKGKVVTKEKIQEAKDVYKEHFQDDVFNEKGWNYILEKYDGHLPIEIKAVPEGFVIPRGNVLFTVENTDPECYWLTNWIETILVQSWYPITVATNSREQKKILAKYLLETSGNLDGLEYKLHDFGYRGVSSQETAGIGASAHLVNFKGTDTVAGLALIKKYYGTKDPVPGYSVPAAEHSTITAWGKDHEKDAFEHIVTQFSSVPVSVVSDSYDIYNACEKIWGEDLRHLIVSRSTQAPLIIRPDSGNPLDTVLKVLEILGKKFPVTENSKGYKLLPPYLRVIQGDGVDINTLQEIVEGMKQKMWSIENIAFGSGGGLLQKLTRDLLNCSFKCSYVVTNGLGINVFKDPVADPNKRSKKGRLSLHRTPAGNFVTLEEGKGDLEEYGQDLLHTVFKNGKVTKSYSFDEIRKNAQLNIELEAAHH
# T1 sequence (P43490 whole entry): as above
Structure (SMILES),degradation of intracellular NAMPT (iNAMPT) protein [1],toxicities in clinical trial [2],"degradation of extracellular NAMPT (eNAMPT) protein ([3]; 24 h, Western blot)","eNAMPT protein level compared to the DMSO control group ([3]; MOLT4 cells, 10 nM, FIG. 5)",IC50 (Jurkat),cytotoxic effect (DAPI-positive ratio) (HL60 tumor cells),long-term survival of mice (hematological tumors),cytotoxicity (DAPI-positive ratio) (MOLT4 tumor cells),"cytotoxicity, more effective than FK866 (MOLT4 tumor cells)"
O=C(/C=C/c1cccnc1)NCCCCC1CCN(C(=O)c2ccccc2)CC1 [FK866],cannot degrade iNAMPT and eNAMPT proteins,dose-limiting toxicities such as thrombocytopenia,cannot degrade iNAMPT and eNAMPT proteins,higher levels of eNAMPT protein,0.635 nM,less than 40%,80%,–,–
"O=C(/C=C/c1cccnc1)NCCCCC1CCN(C(=O)c2ccc(N3CCN(CCCCCC#Cc4cccc5c4CN(C4CCC(=O)NC4=O)C5=O)CC3)cc2)CC1 (stereo not shown) [SIAIS630120, (E)-N-(4-(1-(4-(4-(7-(2-(2,6-dioxopiperidin-3-yl)-1-oxoisoindolin-4-yl)hept-6-yn-1-yl)piperazin-1-yl)benzoyl)piperidin-4-yl)butyl)-3-(pyridin-3-yl)acrylamide]",–,–,–,–,6.24 nM,95%,–,approximately 50%,20%
"O=C(/C=C/c1cccnc1)NCCCCC1CCN(C(=O)c2ccc(N3CCN(CCCCCCC#Cc4cccc5c4CN(C4CCC(=O)NC4=O)C5=O)CC3)cc2)CC1 (stereo not shown) [SIAIS630121, (E)-N-(4-(1-(4-(4-(8-(2-(2,6-dioxopiperidin-3-yl)-1-oxoisoindolin-4-yl)oct-7-yn-1-yl)piperazin-1-yl)benzoyl)piperidin-4-yl)butyl)-3-(pyridin-3-yl)acrylamide]",–,–,–,–,4.83 nM,95%,–,approximately 50%,20%
"O=C(/C=C/c1cccnc1)NCCCCC1CCN(C(=O)c2ccc(N3CCN(CCCCCCCOc4cccc5c4CN(C4CCC(=O)NC4=O)C5=O)CC3)cc2)CC1 (stereo not shown) [SIAIS633098, (E)-N-(4-(1-(4-(4-(7-((2-(2,6-dioxopiperidin-3-yl)-1-oxoisoindolin-4-yl)oxy)heptyl)piperazin-1-yl)benzoyl)piperidin-4-yl)butyl)-3-(pyridin-3-yl)acrylamide]",–,–,–,–,33.9 nM,–,–,–,–
